Columns and labels:
[1] = xn = mol fraction of the nth substance listed; conditions: Fluid (supercritical or subcritical phases), Constant-volume piezometry, x2 = 0
[2] = Fluid (supercritical or subcritical phases), Constant-volume piezometry

O [water] + N
[1]
Conditions	mass density [kg/m3]
270.15 K, 4074.2 kPa	1001.55
271.17 K, 3818.6 kPa	1001.52
272.04 K, 5219 kPa	1002.3
272.13 K, 3596.6 kPa	1001.49
273.1 K, 3402.1 kPa	1001.46
273.15 K, 5009.6 kPa	1002.26
274.12 K, 13437 kPa	1006.52
274.15 K, 3220.1 kPa	1001.42
274.15 K, 4843.5 kPa	1002.23
275.15 K, 4716.5 kPa	1002.19
275.16 K, 3074.5 kPa	1001.39
275.18 K, 13355 kPa	1006.48
276.12 K, 4614.4 kPa	1002.16
276.16 K, 13306 kPa	1006.44
276.17 K, 2960.4 kPa	1001.35
276.18 K, 13305 kPa	1006.44
277.15 K, 2875.8 kPa	1001.32
277.15 K, 4535.3 kPa	1002.12
277.16 K, 13282 kPa	1006.4
278.13 K, 4490.8 kPa	1002.08
278.16 K, 2819.8 kPa	1001.27
278.16 K, 13288 kPa	1006.35
279.1 K, 4468.4 kPa	1002.03
279.16 K, 2790.3 kPa	1001.23
279.17 K, 13328 kPa	1006.3
280.1 K, 4469.1 kPa	1001.99
280.17 K, 13374 kPa	1006.26
281.08 K, 2807.6 kPa	1001.14
281.14 K, 4509 kPa	1001.94
281.17 K, 13456 kPa	1006.21
282.13 K, 13562 kPa	1006.16
283.15 K, 4649.5 kPa	1001.84
283.18 K, 13665 kPa	1006.11
285.14 K, 13994 kPa	1006.01
286.05 K, 5038.7 kPa	1001.69
288.15 K, 14714 kPa	1005.84
289.17 K, 5677.6 kPa	1001.51
292.12 K, 6505.6 kPa	1001.33
296.13 K, 7938.8 kPa	1001.06
300.13 K, 9714.8 kPa	1000.78
305.19 K, 12424 kPa	1000.41
308.16 K, 14234 kPa	1000.19

O [water]
[2]
Conditions	mass density [kg/m3]
270.15 K, 4074.2 kPa	1001.55
271.17 K, 3818.6 kPa	1001.52
272.04 K, 5219 kPa	1002.3
272.13 K, 3596.6 kPa	1001.49
273.1 K, 3402.1 kPa	1001.46
273.15 K, 5009.6 kPa	1002.26
274.12 K, 13437 kPa	1006.52
274.15 K, 3220.1 kPa	1001.42
274.15 K, 4843.5 kPa	1002.23
275.15 K, 4716.5 kPa	1002.19
275.16 K, 3074.5 kPa	1001.39
275.18 K, 13355 kPa	1006.48
276.12 K, 4614.4 kPa	1002.16
276.16 K, 13306 kPa	1006.44
276.17 K, 2960.4 kPa	1001.35
276.18 K, 13305 kPa	1006.44
277.15 K, 2875.8 kPa	1001.32
277.15 K, 4535.3 kPa	1002.12
277.16 K, 13282 kPa	1006.4
278.13 K, 4490.8 kPa	1002.08
278.16 K, 2819.8 kPa	1001.27
278.16 K, 13288 kPa	1006.35
279.1 K, 4468.4 kPa	1002.03
279.16 K, 2790.3 kPa	1001.23
279.17 K, 13328 kPa	1006.3
280.1 K, 4469.1 kPa	1001.99
280.17 K, 13374 kPa	1006.26
281.08 K, 2807.6 kPa	1001.14
281.14 K, 4509 kPa	1001.94
281.17 K, 13456 kPa	1006.21
282.13 K, 13562 kPa	1006.16
283.15 K, 4649.5 kPa	1001.84
283.18 K, 13665 kPa	1006.11
285.14 K, 13994 kPa	1006.01
286.05 K, 5038.7 kPa	1001.69
288.15 K, 14714 kPa	1005.84
289.17 K, 5677.6 kPa	1001.51
292.12 K, 6505.6 kPa	1001.33
296.13 K, 7938.8 kPa	1001.06
300.13 K, 9714.8 kPa	1000.78
305.19 K, 12424 kPa	1000.41
308.16 K, 14234 kPa	1000.19

From the NIST ThermoML archive (doi:10.1007/s10765-005-8590-7)
